The nature of data set [1]: Inhibition of Hepatitis C virus NS3 protease. The arrangement: species or system Hepacivirus hominis.
Data set [2] is described as follows: Half life in dog liver microsomes. In kind it is ADME, Canis lupus familiaris, Microsome. For orientation: Liver microsomes are a subcellular fraction often used to study metabolism.
The nature of data set [3]: Half life in monkey liver microsomes. In kind it is ADME, Macaca mulatta, Microsome. To be noted: rhesus monkey.
Data set [4] is described as follows: Half life in human liver microsomes. Type of data set: ADME, Microsome.
Data set [5] in a line: Half life in rat liver microsomes. In kind it is ADME, Microsome.
Data set [6] is described as follows: Permeability across basolateral to apical side in human Caco2 cells. Type of data set: ADME, cell-based. To be noted: Caco-2, read-out: permeability.
Data set [7] in a line: Permeability across apical to basolateral side in human Caco2 cells. To be noted: Caco-2, read-out: permeability. Type of data set: ADME, cell-based. A general note: Passage across Caco-2 layers is used to estimate intestinal permeability.
Data set [8] has as its system Hepatitis C virus. Kind of data set: Antiviral activity against Hepatitis C virus. In kind it is functional, organism-based, Hepacivirus hominis.
Data set [9] can be described thus: Bioavailability in rat at 2 mg/kg, […]. Type of data set: ADME, organism-based. To be noted: in vivo.
Data set [10] in a line: Volume of distribution at steady state in rat at 2 mg/kg, iv. To be noted: in vivo, read-out: Vdss. The arrangement: dose 2 mg/kg, route intravenous. In kind it is ADME, organism-based.
Data set [11] in a line: Clearance in rat at 2 mg/kg, iv. In kind it is ADME, organism-based. Also noted: dose 2 mg/kg, route intravenous. To be noted: in vivo.
The nature of data set [12]: Half life in rat at 2 mg/kg, iv. In kind it is ADME, organism-based. Also noted: dose 2 mg/kg, route intravenous. Particulars: in vivo.
The test system of data set [13] is Rattus norvegicus. Kind of data set: Cmax in rat at 5 mg/kg, po. Type of data set: ADME, organism-based. Also noted: dose 5 mg/kg, route oral. Particulars: in vivo.
Data set [14] has as its system Rattus norvegicus. As to the kind of experiment: AUC (0 to infinity) in rat at 5 mg/kg, po. In kind it is ADME, organism-based, Plasma. Also noted: time infinity, dose 5 mg/kg, route oral. Particulars: in vivo.
Data set [15] is described as follows: Solubility of the compound at pH 7.2. To be noted: buffer. In kind it is physicochemical.
Data set [16] is described as follows: Plasma concentration in rat at 5 mg/kg measured at 1 hr. In kind it is ADME, organism-based. The arrangement: dose 5 mg/kg.
Data set [17] deals with Hepatitis C virus. Kind of data set: Antiviral activity against Hepatitis C virus genotype 1b infected in human Huh-9-13 cells by replicon assay. Type of data set: functional, organism-based, Hepacivirus hominis. (Replicon systems follow genome replication, usually without infectious particles.)

Each structure is given as a SMILES string. Converted amounts (≈) assume the structure as drawn.

Consider `C=C[C@@H]1C[C@]1(NC(=O)[C@@H]1C[C@@H](Oc2cc(-c3csc(NC(C)=O)n3)nc3cc(OC)ccc23)CN1C(=O)[C@@H](NC(=O)OC(C)(C)C)C(C)(C)C)C(=O)O`, for which it took 13 nM to reach half-maximal inhibition in data set [1] (IC50).

With `C=C[C@@H]1C[C@]1(NC(=O)[C@@H]1C[C@@H](Oc2cc(-c3csc(NC(C)=O)n3)nc3cc(OC)ccc23)CN1C(=O)[C@@H](OC(=O)NC(C)(C)C)C(C)(C)C)C(=O)O`, the IC50 – broadly, the concentration that inhibits the measured activity by half – in [1] was 140 nM.

`C=C[C@@H]1C[C@]1(NC(=O)[C@@H]1C[C@@H](Oc2cc(-c3csc(NC(C)=O)n3)nc3cc(OC)ccc23)CN1C(=O)[C@@H](NC(=O)NC(C)(C)C)C(C)(C)C)C(=O)O` showed an IC50 in data set [1] of 2.6 nM.

In turn, `C=C[C@@H]1C[C@]1(NC(=O)[C@@H]1C[C@@H](Oc2cc(-c3csc(NC(C)=O)n3)nc3cc(OC)ccc23)CN1C(=O)[C@@H](CC(=O)NC(C)(C)C)C(C)(C)C)C(=O)O` returned an IC50 in [1] of 53 nM.

`C=C[C@@H]1C[C@]1(NC(=O)[C@@H]1C[C@@H](Oc2cc(-c3csc(NC(C)=O)n3)nc3cc(OC)ccc23)CN1C(=O)[C@@H](CC(=O)NC1CCCC1)C(C)(C)C)C(=O)O` had an IC50 in [1] of 23 nM.

Molecule `C=C[C@@H]1C[C@]1(NC(=O)[C@@H]1C[C@@H](Oc2cc(-c3csc(NC(C)=O)n3)nc3cc(OC)ccc23)CN1C(=O)[C@@H](CC(=O)Nc1ccccc1)C(C)(C)C)C(=O)O` had an IC50 in data set [1] of 13 nM.

`C=C[C@@H]1C[C@]1(NC(=O)[C@@H]1C[C@@H](Oc2cc(-c3csc(NC(C)C)n3)nc3c(Br)c(OC)ccc23)CN1C(=O)[C@@H](NC(=O)OC1CCCC1)C(C)(C)C)C(=O)O`: the half-life (usually the time needed for the level to fall by half in the phase considered) in data set [2] is above 5 h; in data set [3], 3.17 h; in data set [4] it was above 5 h; in data set [5] it was 3.5 h. Also, in data set [6], the Papp B→A amounted to 2 ×10⁻⁶ cm/s. Further, the Papp A→B in [7] stood at 17 ×10⁻⁶ cm/s. In addition, the IC50 in data set [1] is 8.9 nM. Besides, in the data set with Hepatitis C virus [8], the EC50 (commonly the midpoint of the concentration-response curve) stood at 6.8 nM.

For the molecule `C=C[C@@H]1C[C@]1(NC(=O)[C@@H]1C[C@@H](Oc2cc(-c3csc(NC(C)C)n3)nc3c(Br)c(OC)ccc23)CN1C(=O)[C@@H](CC(=O)NC1CCCC1)C(C)(C)C)C(=O)O`, in data set [9], the bioavailability (as a rule, dose-corrected exposure relative to a reference, in per cent) was 47%. Further, the Vd in [10] stood at 1.3 L/kg. For the same molecule, the clearance – broadly, a measure of how efficiently the substance is removed, as volume per time – in data set [11] stood at 22 mL/min/kg. The half-life in data set [12] was 1.4 h; in [2], 2.55 h; in data set [3], 0.867 h; in data set [4] it was 3.45 h; in data set [5], 3.13 h. In the data set with Rattus norvegicus [13], the Cmax (usually the maximum level reached in the sampled fluid or tissue) turned out to be 850 nM. The AUC (as a rule, the area under the concentration-time curve, a measure of exposure) in the data set on Rattus norvegicus [14] was 2.1 µM·h. Besides, the Papp B→A in [6] is 10 ×10⁻⁶ cm/s. In data set [7], the Papp A→B came to 8 ×10⁻⁶ cm/s. The molecule also yielded an IC50 in data set [1] of 10 nM. In the data set with Hepatitis C virus [8], the concentration for a half-maximal effect (EC50) is 3.5 nM.

In data set [1], `C=C[C@@H]1C[C@]1(NC(=O)[C@@H]1C[C@@H](Oc2nccc3cc(OC)ccc23)CN1C(=O)[C@@H](NC(=O)OC(C)(C)C)C(C)(C)C)C(=O)NS(=O)(=O)C1CC1` had an IC50 of 2 nM. The EC50 in the data set on Hepatitis C virus [8] came out at 3 nM.

`C=C[C@@H]1C[C@]1(NC(=O)[C@@H]1C[C@@H](Oc2nccc3cc(OC)ccc23)CN1C(=O)[C@@H](CC(=O)NC(C)(C)C)C(C)(C)C)C(=O)NS(=O)(=O)C1CC1` gave an IC50 in data set [1] of 8.7 nM. Also, the EC50 in the data set with Hepatitis C virus [8] turned out to be 130 nM.

Turning to `C=C[C@@H]1C[C@]1(NC(=O)[C@@H]1C[C@@H](Oc2nccc3cc(OC)ccc23)CN1C(=O)[C@@H](CC(=O)Nc1ccccc1)C(C)(C)C)C(=O)NS(=O)(=O)C1CC1`, the IC50 in [1] worked out at 1.7 nM. The same molecule returned an EC50 in the data set on Hepatitis C virus [8] of 64 nM.

As for `C=C[C@@H]1C[C@]1(NC(=O)[C@@H]1C[C@@H](Oc2cc(OCC)nc3c(Cl)cccc23)CN1C(=O)[C@@H](CC(=O)NC(C)(C)C)C(C)(C)C)C(=O)NS(=O)(=O)C1CC1`, the solubility (in general, the dissolved amount per volume that the medium holds) in data set [15] was 144 mg/mL (≈ 189 mM). The molecule further came in with a half-life in [4] of 1.58 h. The Papp A→B in data set [7] amounted to 3 ×10⁻⁶ cm/s. In addition, the IC50 in [1] turned out to be 0.9 nM. This molecule came in with an EC50 in the data set on Hepatitis C virus [8] of 69 nM.

In data set [15], `C=C[C@@H]1C[C@]1(NC(=O)[C@@H]1C[C@@H](Oc2cc(OCC)nc3c(Br)c(OC)ccc23)CN1C(=O)[C@@H](CC(=O)NC(C)(C)C)C(C)(C)C)C(=O)NS(=O)(=O)C1CC1` came in with a solubility of 83 mg/mL (≈ 99.4 mM). In [4], this molecule gave a half-life above 5 h. Also, in data set [7], the Papp A→B turned out to be 7.1 ×10⁻⁶ cm/s. For the same molecule, half-maximal inhibition in data set [1] (IC50) was put at 0.8 nM. In the data set on Hepatitis C virus [8], this molecule had an EC50 of 8.4 nM.

In [15], `C=C[C@@H]1C[C@]1(NC(=O)[C@@H]1C[C@@H](Oc2cc(OCC)nc3c(Cl)cccc23)CN1C(=O)[C@@H](CC(=O)Nc1ccccc1)C(C)(C)C)C(=O)NS(=O)(=O)C1CC1` gave a solubility of 56 mg/mL (≈ 71.8 mM). In addition, the half-life in [4] was above 5 h; in [5], 2.67 h. In addition, in [7], the Papp A→B was determined as 3.9 ×10⁻⁶ cm/s. For the same molecule, in data set [1], the IC50 worked out at 0.8 nM. Further, in the data set with Hepatitis C virus [8], a half-maximal effect (EC50) was put at 6.5 nM.

The molecule `C=C[C@@H]1C[C@]1(NC(=O)[C@@H]1C[C@@H](Oc2cc(OCC)nc3c(Br)c(OC)ccc23)CN1C(=O)[C@@H](CC(=O)Nc1ccccc1)C(C)(C)C)C(=O)NS(=O)(=O)C1CC1` displayed a concentration at 1 h in data set [16] of 100 nM. This molecule also had a solubility in [15] of 45 mg/mL (≈ 52.6 mM). Besides, the half-life in [4] is 1.52 h; in data set [5] it was above 5 h. In [7], the Papp A→B is 2.4 ×10⁻⁶ cm/s. 0.4 nM corresponded to half-maximal inhibition in data set [1] (IC50). Also, in the data set on Hepatitis C virus [8], the EC50 was determined as 2.5 nM.

Turning to `C=C[C@@H]1C[C@]1(NC(=O)[C@@H]1C[C@@H](Oc2cc(-c3ccccc3)nc3cc(OC)ccc23)CN1C(=O)[C@@H](CC(=O)N1CCCCC1)C(C)(C)C)C(=O)NS(=O)(=O)C1CC1` [SOVAPREVIR], in the data set on Hepatitis C virus [17], the EC50 is 11 nM.

The record behind these values is ChEMBL document CHEMBL2401615, “Peptide backbone replacement of hepatitis C virus NS3 serine protease C-terminal cleavage product analogs: discovery of potent succinamide inhibitors” (Bioorg Med Chem Lett, 2013).
